SMILES strings stand for the structures. Like-named read-outs stand apart in the source and are kept apart here.

This note sets out measurements from patent US10258602B2 (Ocera Therapeutics, Inc., priority 2007, dated 2019).

The subject of data set [1] is Caco-2 cell layer. In words: Caco-2 permeability. The settings on record: for Papp A to B: Caco-2, apical to basolateral; for Papp A to B / Papp B to A: 10 μM, 60 min, 37° C.; for Papp B to A: Caco-2, basolateral to apical; for BtoA/AtoB: Caco-2 ratio of Papp B to A over A to B.
Experimental: L. Determination of Caco-2 Permeability
Fully differentiated cell monolayers can be used to assess the membrane transport properties of novel compounds.
Permeability across the Caco-2 cell layer was determined by growing the cells on a membrane placed between two (donor and acceptor) chambers. […] Permeability in this direction represents intestinal absorption. Permeability may also be determined from the basolateral to the apical side of the Caco-2 cell. A higher apical to basolateral Papp, compared to the basolateral to apical Papp, is indicative of carrier-mediated transport.
Permeability (10 μM) for compounds of the invention in the apical to basolateral and basolateral to apical direction were tested in duplicate. Samples will be collected from the donor and acceptor chambers at the beginning (0 min) and following 60 min of incubation at 37° C. and stored frozen at −70° C. until bioanalysis. Samples for each test compound generated from the Caco-2 permeability assay were further analyzed by LC-MS-MS. The permeability of [^3H]-mannitol and [^3H]-propranolol were determined in parallel as controls.
The permeability coefficient (Papp) of each compound and radiolabeled standard was determined using the following equation:
where dQ/dT represents the permeability rate, Ci denotes the initial concentration in the donor compartment, and A represents the surface area of the filter. Ci is determined from the mean concentration of duplicate samples taken prior to addition to the donor compartment. Permeability rates were calculated by plotting the cumulative amount of compound measured in the acceptor compartment over time and determining the slope of the line by linear regression analysis. The duplicate and mean apical to basolateral and basolateral to apical Papp's were reported for each compound and standard.
Data set [2] has as its target human growth hormone secretagogue receptor (hGHS-R1a) (Homo sapiens, UniProt Q92847). In words: Competitive radioligand binding assay (ghrelin receptor), standard method A.
For data set [3], the target named is T1, hGHS-R1a (Homo sapiens, UniProt Q92847).
T1 construct: expressed in transfected cells
T1 sequence (Q92847 whole entry): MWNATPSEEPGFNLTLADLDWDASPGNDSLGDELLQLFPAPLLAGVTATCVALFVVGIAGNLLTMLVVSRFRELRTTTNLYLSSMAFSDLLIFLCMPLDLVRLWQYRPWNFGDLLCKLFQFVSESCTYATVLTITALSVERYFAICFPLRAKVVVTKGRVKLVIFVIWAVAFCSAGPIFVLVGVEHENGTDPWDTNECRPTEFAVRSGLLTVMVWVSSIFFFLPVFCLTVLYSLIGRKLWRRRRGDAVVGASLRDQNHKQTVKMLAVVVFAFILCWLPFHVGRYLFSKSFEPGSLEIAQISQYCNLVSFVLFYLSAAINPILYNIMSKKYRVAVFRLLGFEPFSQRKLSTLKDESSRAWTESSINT
In words: Activation-desensitization profile, Ca2+ flux in HEK293 cells stably expressing hGHS-R1a. Conditions: higher positive = less desensitization potential. Format: cell-based. How it is done:
M. Activation-Desensitization Profile
It is well-known that agonists of G-protein coupled receptors can induce desensitization or tachyphylaxis, thereby limiting the potential of agents acting at the receptor as therapeutics for chronic use.
• 1. […] Agonist-induced Ca^+2 fluxes were measured after loading with Ca^+2 indicator Fluo-4-AM. • 3. […] Results

Data set [4] can be described thus: Plasma protein binding, rat plasma. Format: in vitro ADME. Conditions: test concentration 5 μg/mL.
The target in data set [5] is GHS-R1a receptor (human ghrelin receptor) (Homo sapiens, UniProt Q92847). In words: Aequorin functional assay (ghrelin receptor), standard method B. Format: cell-based. The text has this: B. Aequorin Functional Assay (Ghrelin Receptor)
Sequence of GHS-R1a receptor (human ghrelin receptor) (Q92847 whole entry): as above
See also U.S. patent application Ser. Nos. 11/149,512 and 11/149,731. (LePoul, E.; et al. J. Biomol. Screen. 2002, 7, 57-65; Bednarek, M. A.; et al. J. Med. Chem. 2000, 43, 4370-4376; Palucki, B. L.; et al. Bioorg. Med. Chem. Lett. 2001, 11, 1955-1957.) Functional activity at the gherlin receptor for representative compounds of the present invention is presented in the Examples.

Data set [6] deals with rat stomach fundus strips. In words: tissue or blood. The settings on record: read-out: EC50 values for contractility.
Experimental: Fundus strips (approximately 0.4×1 cm) were cut from the stomach of adult male Wistar rats parallel to the circular muscle fibers. They were placed between two platinum ring electrodes, 1 cm apart (Radnoti, ADInstruments, USA) in 10 ml tissue baths containing Krebs solution bubbled with 5% CO2 in O2 and maintained at 37° C. Tissues were suspended under 1.5 g resting tension. Changes of tension were measured isometrically with force transducers and recorded with a PowerLab 8/30 data acquisition system (ADInstruments, USA). Tissues were allowed to equilibrate for 60 min during which time bath solutions were changed every 15 min.
EFS was achieved by applying 0.5 ms pulses, 5 Hz frequency, at a maximally effective voltage of 70 V. EFS was applied for 30 sec at 3 min intervals for a 30 min initial period. This initial period was separated by a 5 min interval with wash out of the bath solution. Then, a second period of stimulation was started. […] Responses to the agents were measured and expressed as % of the mean of three or four pre-drug responses to EFS. All compounds were dissolved at 1 mM in distilled water or MeOH, as stock solutions.
Data set [7] in a line: Plasma protein binding, human plasma (equilibrium dialysis). Format: in vitro ADME. The settings on record: test concentration 5 μg/mL. An outline of the steps: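 Human plasma incubated with test article at several concentrations for 60 min at 37° C. Bound and unbound fractions separated by equilibrium dialysis; unbound concentration quantified by LC-MS or LC-MS-MS.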
[8] abbreviates: binding activity at the human ghrelin receptor, standard method A.

Sequence of human growth hormone secretagogue receptor (hGHS-R1a) (Q92847 whole entry): as above

On to `CC(C)CC1NC(=O)C(C)N(C)C(=O)C(C2CC2)NCC(C)OC2CCCCC2CCCNC1=O` (mixture of isomers) [Compound 825], for which, in data set [1], the “Papp A to B” value worked out at 113 cm/sec × 10^−6, the “Papp B to A” value turned out to be 123 cm/sec × 10^−6 and the BtoA/AtoB was determined as 1.08. Further, in data set [2] (setting [8]), the Ki was at most 10 nM.

As to `CC1CNC(C2CC2)C(=O)N(C)C(C)C(=O)NC(Cc2ccc(O)cc2)C(=O)NCCCC2CCCCC2O1` (mixture of isomers) [Compound 826], in data set [1], the “Papp A to B” value stood at 11.2 cm/sec × 10^−6, the “Papp B to A” value was 46.9 cm/sec × 10^−6 and the BtoA/AtoB worked out at 4.18. In data set [2] (setting [8]), this compound yielded a Ki of at most 100 nM. Further, in data set [3], the “Δ(activity-desensitization) (pEC50 − pDC50)” value is 1.90.

On to `CC(C)CC1NC(=O)C(C)N(C)C(=O)C(C2CCCCC2)NCC(C)OC2CCCCC2CCCNC1=O` (mixture of isomers) [Compound 828], for which the Ki in data set [2] (setting [8]) is at most 1 nM.

As to `C[C@@H]1C(=O)N[C@H](Cc2ccc(O)cc2)C(=O)NCCCc2cccc3c2O[C@H](CC3)CN[C@@H](C2CC2)C(=O)N1C` [Compound 803], in data set [1], the “Papp A to B” value was 12.1 cm/sec × 10^−6, the “Papp B to A” value was found to be 67.3 cm/sec × 10^−6 and the BtoA/AtoB amounted to 5.59. The compound further registered a Ki in data set [2] (setting [8]) of at most 100 nM.

Consider `CC(C)C[C@H]1NC(=O)[C@@H](C)N(C)C(=O)[C@H](C2CC2)NC[C@@H](C)Oc2ccccc2CC[C@H](C)NC1=O` [Compound 807], for which the fraction unbound at 60 min, 5 μg/mL in data set [4] is 0.16; in data set [7] it was 0.007. In addition, the figures for the EC50 in data set [5] and in data set [6] were at most 50 nM and 150 nM, respectively. Further, the Ki in data set [2] is at most 10 nM. Moreover, the “Δ(activity-desensitization) (pEC50 − pDC50)” value in data set [3] amounted to 3.08.

In the case of `C[C@@H]1C(=O)N[C@H](Cc2ccc(O)cc2)C(=O)NCCCc2ccc(F)cc2OCCN[C@@H](C2CC2)C(=O)N1C` [Compound 809], the Ki in data set [2] (setting [8]) is at most 100 nM.

On to `CC(C)C[C@H]1NC(=O)[C@@H](C)N(C)C(=O)[C@H](C2CC2)NCCOc2cc(F)ccc2CCCNC1=O` [Compound 810], for which the Ki in data set [2] (setting [8]) is at most 100 nM.

`CC1NC(C2CC2)C(=O)N(C)C(C)C(=O)NC(Cc2ccc(O)cc2)C(=O)NCCCc2ccccc2OC1C` (stereo not drawn) [Compound 820] showed a Ki in data set [2] (setting [8]) of at most 100 nM.

Turning to `CC(C)C[C@H]1NC(=O)[C@@H](C)N(C)C(=O)[C@H](C2CC2)NCCOc2cc(F)ccc2CC[C@H](C)NC1=O` [Compound 822], the Ki in data set [2] (setting [8]) was at most 100 nM.
